Results taken from the supplement of paper PMC12592484.

Assays:
Assay in all cases: drug sensitivity score (DSS2, normalised partial AUC of dose-response, 72 h CellTiter-Glo viability) (DSS (dimensionless)); higher = more sensitive (stronger growth inhibition / cytotoxicity); extreme values may be limits of the assay
[1] = system: 22Rv1
Summary of the method: (§1)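 The drug sensitivity score reported here is a partial area under the fitted logistic dose–response curve, divided by the log of the curve's upper asymptote and computed in BREEZE; higher values denote greater sensitivity. Low-passage primary prostate cancer-associated fibroblasts, PF179T, WPMY-1, LNCaP and 22Rv1 cells were seeded into 384-well plates preloaded with compounds at five doses across a 10,000-fold range. CellTiter-Glo 2.0 luminescence gave viability at 72 h, scaled to vehicle and positive-control wells.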

[2] = system: CAF#1 (primary prostate cancer-associated fibroblasts of myCAF-like type)
Summary of the method: as §1

[3] = system: CAF#2 (primary prostate cancer-associated fibroblasts of iCAF-like type)
Summary of the method: as §1

[4] = system: CAF#3 (primary prostate cancer-associated fibroblasts of myCAF-like type)
Summary of the method: as §1

[5] = system: CAF#4 (primary prostate cancer-associated fibroblasts of iCAF-like type)
Summary of the method: as §1

[6] = system: CAF#5 (primary prostate cancer-associated fibroblasts of myCAF-like type)
Summary of the method: as §1

[7] = system: CAF#6 (primary prostate cancer-associated fibroblasts of iCAF-like type)
Summary of the method: as §1

[8] = system: CAF#7 (primary prostate cancer-associated fibroblasts of myCAF-like type)
Summary of the method: as §1

[9] = system: LNCAP
Summary of the method: as §1

[10] = system: PF179T
Summary of the method: as §1

[11] = system: WPMY-1
Summary of the method: as §1

SMILES | drug sensitivity score [1] | drug sensitivity score [2] | drug sensitivity score [3] | drug sensitivity score [4] | drug sensitivity score [5] | drug sensitivity score [6] | drug sensitivity score [7] | drug sensitivity score [8] | drug sensitivity score [9] | drug sensitivity score [10] | drug sensitivity score [11]
CNC(=O)c1cc(Oc2ccc(NC(=O)Nc3ccc(Cl)c(C(F)(F)F)c3)c(F)c2)ccn1 [Regorafenib] (tested concentration range 1-10000 nM) | 6 | 2.8 | 3.4 | 3.7 | 2.4 | 3.2 | 1 | 2.7 | 7.2 | 1.9 | 3.8
CON(C)C(=O)N1N=C(c2cc(F)ccc2F)S[C@@]1(CCCN)c1ccccc1 [Filanesib] (tested concentration range 0.1-1000 nM) | 21.3 | 0.2 | 17.7 | 3.2 | 6 | 3.9 | 2.6 | 2.6 | 29.5 | 13 | 22
CNC(=O)c1cc(Oc2ccc(NC(=O)Nc3ccc(Cl)c(C(F)(F)F)c3)cc2)ccn1 [Sorafenib] (tested concentration range 0.1-1000 nM) | 0 | 0 | 0 | 2.6 | 1.2 | 0 | 0 | 0 | 0 | 0 | 0
CC(=O)O[C@@]12CO[C@@H]1C[C@H](O)[C@@]1(C)C(=O)[C@H](O)C3=C(C)[C@@H](OC(=O)[C@H](O)[C@@H](NC(=O)OC(C)(C)C)c4ccccc4)C[C@@](O)([C@@H](OC(=O)c4ccccc4)[C@H]21)C3(C)C [Docetaxel] (tested concentration range 0.1-1000 nM) | 25.4 | 16.4 | 20.6 | 12.8 | 14.2 | 17.2 | 16.7 | 25.6 | 34.6 | 19.7 | 28.3
Cc1cccc(-c2[nH]c(CNc3ccccc3F)nc2-c2ccc3ncnn3c2)n1 [TEW-7197] (tested concentration range 0.2-2500 nM) | 0 | 0.5 | 0 | 0.5 | 0 | 0.3 | 0 | 0 | 0 | 0 | 0
CN(C)C1CCN(C(=O)c2ccc(NC(=O)Nc3ccc(-c4nc(N5CCOCC5)nc(N5CCOCC5)n4)cc3)cc2)CC1 [Gedatolisib] (tested concentration range 0.1-1000 nM) | 22.5 | 5.9 | 5.1 | 8.9 | 5.6 | 9.8 | 10.9 | 13.1 | 19.8 | 8.1 | 14.8
CN(CC(=O)N(Cc1ccc(C2CCCCC2)cc1)c1ccc(C(=O)O)cc1)S(=O)(=O)c1c(F)c(F)c(F)c(F)c1F [SH-4-54] (tested concentration range 2.5-25000 nM) | 8.4 | 6.3 | 6.3 | 5.4 | 5.6 | 6 | 7.2 | 4.6 | 6 | 5.5 | 6.5
Cc1ccccc1CN1C(=O)C2=C(CCN(Cc3ccccc3)C2)N2CCN=C12 [ONC201] (tested concentration range 2.5-25000 nM) | 13.9 | 3.6 | 6.2 | 2.3 | 3.4 | 3.1 | 4.1 | 3.8 | 9.3 | 3.1 | 6.9
C=CC[C@@H]1/C=C(\C)C[C@H](C)C[C@H](OC)[C@H]2O[C@@](O)(C(=O)C(=O)N3CCCC[C@H]3C(=O)O[C@H](/C(C)=C/[C@@H]3CC[C@@H](O)[C@H](OC)C3)[C@H](C)[C@@H](O)CC1=O)[C@H](C)C[C@@H]2OC [Tacrolimus] (tested concentration range 1-10000 nM) | 2.3 | 0.9 | 2.7 | 0.2 | 0 | 0.9 | 2.3 | 2 | 6.8 | 0 | 1
CN1CCN(C2CCC(n3cc(-c4ccc(Oc5ccccc5)cc4)c4c(N)ncnc43)CC2)CC1 (stereo not given) (tested concentration range 1-10000 nM) | 9.1 | 12.2 | 14.6 | 11.2 | 13.6 | 11.5 | 11.7 | 16.6 | 8.3 | 9.3 | 10.1
CNCc1ccc(-c2[nH]c3cc(F)cc4c3c2CCNC4=O)cc1 [Rucaparib] (tested concentration range 1-10000 nM) | 4.6 | 0.8 | 2.3 | 0 | 3.8 | 0 | 0.5 | 2.9 | 4.8 | 3.7 | 1.8
CCn1c(-c2nonc2N)nc2cnc(Oc3cccc(NC(=O)c4ccc(OCCN5CCOCC5)cc4)c3)cc21 (tested concentration range 1-10000 nM) | 4.7 | 3.2 | 3.3 | 0.2 | 0.6 | 1.2 | 2.8 | 4.7 | 8.1 | 0.9 | 6.8
C1=N/C2=N/c3ccc(OCCN4CCCC4)c(c3)COC/C=C/COCc3cccc(c3)C(=C1)N2 [Pacritinib] (tested concentration range 1-10000 nM) | 8.6 | 6.7 | 7.8 | 9.4 | 6.1 | 7.3 | 8.2 | 8.1 | 8.4 | 4.5 | 10.5
Nc1nc(OCc2cc(Br)cs2)c2[nH]cnc2n1 [Lomeguatrib] (tested concentration range 1-10000 nM) | 0 | 0 | 1.4 | 0.1 | 0.1 | 0.2 | 0 | 0 | 0 | 0 | 0
COc1ccc(CCc2nc3cc(-c4c(C)noc4C)ccc3n2C[C@H](C)N2CCOCC2)cc1Cl [SGC-CBP30] (tested concentration range 2.5-25000 nM) | 6.2 | 1.6 | 1.5 | 5.4 | 1.3 | 0.8 | 2.2 | 1.2 | 8.5 | 0.1 | 7.4
CCc1nc(C(N)=O)c(Nc2ccc(N3CCC(N4CCN(C)CC4)CC3)c(OC)c2)nc1NC1CCOCC1 [Gilteritinib] (tested concentration range 0.1-1000 nM) | 1.7 | 0.3 | 0 | 0 | 0 | 0.1 | 0 | 0 | 0 | 1.3 | 5.2
COc1cc(Nc2ncc(F)c(Nc3ccc4c(n3)NC(=O)C(C)(C)O4)n2)cc(OC)c1OC [Tamatinib] (tested concentration range 1-10000 nM) | 0 | 10.9 | 9.7 | 1.7 | 5.8 | 6.4 | 0.8 | 3.2 | 0.8 | 8 | 6
COc1cc(Nc2ncc(F)c(Nc3ccc4c(n3)N(COP(=O)(O)O)C(=O)C(C)(C)O4)n2)cc(OC)c1OC [Fostamatinib] (tested concentration range 0.2-2500 nM) | 0 | 7.7 | 8.4 | 6.6 | 5.3 | 7.2 | 5.6 | 7 | 4.4 | 7.3 | 4.4
CCN(CC)CCNC(=O)c1c(C)[nH]c(/C=C2\C(=O)Nc3ccc(F)cc32)c1C [Sunitinib] (tested concentration range 0.1-1000 nM) | 0.8 | 0 | 2.5 | 2.8 | 0 | 0.3 | 0 | 0 | 0 | 0 | 0.5
O=C(Nc1cccnc1)N1CCC(Cc2cccc(Oc3ccc(C(F)(F)F)cn3)c2)CC1 [PF-3845] (tested concentration range 1-10000 nM) | 2.3 | 0 | 0 | 0.2 | 0 | 0 | 0 | 0 | 3.3 | 3 | 4.6
CCCCc1nc2cc(/C=C/C(=O)NO)ccc2n1CCN(CC)CC [Pracinostat] (tested concentration range 1-10000 nM) | 20 | 10.7 | 13.7 | 9 | 10.6 | 10.3 | 9.2 | 8.4 | 20.3 | 9.9 | 20
Nc1nc(Nc2ccc3c(c2)CC[C@@H](N2CCCC2)CC3)nn1-c1cc2c(nn1)-c1ccccc1CCC2 [Bemcentinib] (tested concentration range 1-10000 nM) | 5 | 2.5 | 3.2 | 8.6 | 1.8 | 4.1 | 5.7 | 2.7 | 5.4 | 5 | 8.5
O=C(Nc1cccc(Nc2ncc(Br)c(NCCc3cnc[nH]3)n2)c1)N1CCCC1 [BX-912] (tested concentration range 1-10000 nM) | 1.9 | 6.1 | 7.5 | 7.6 | 3.1 | 8.1 | 6.2 | 10 | 3.5 | 7.6 | 9.9
CCC1(c2ccc(N)cc2)CCC(=O)NC1=O (stereo not given) [Aminoglutethimide] (tested concentration range 1-10000 nM) | 0 | 0 | 0 | 0.2 | 0 | 0 | 0 | 0 | 0.3 | 0 | 0
Cc1cn(-c2cc(NC(=O)c3ccc(C)c(Nc4nccc(-c5cnccn5)n4)c3)cc(C(F)(F)F)c2)cn1 [Radotinib] (tested concentration range 1-10000 nM) | 0 | 0.5 | 0 | 0 | 0.1 | 0 | 0 | 0 | 0.3 | 0 | 0
